Experimental data taken from paper PMC4706532, “Diarylthiophenes as inhibitors of the pore-forming protein perforin” (Bioorganic & Medicinal Chemistry Letters, 2016).
Converted amounts (≈) assume the structure as drawn.

Legend:
[1] = Solubility in water; conditions: for solubility: water
[2] = target: T1, recombinant perforin (Mus musculus, UniProt P10820); experiment: Inhibition of perforin-mediated lysis of Jurkat cells (51Cr release); conditions: isolated perforin
T1 sequence (P10820 21-554): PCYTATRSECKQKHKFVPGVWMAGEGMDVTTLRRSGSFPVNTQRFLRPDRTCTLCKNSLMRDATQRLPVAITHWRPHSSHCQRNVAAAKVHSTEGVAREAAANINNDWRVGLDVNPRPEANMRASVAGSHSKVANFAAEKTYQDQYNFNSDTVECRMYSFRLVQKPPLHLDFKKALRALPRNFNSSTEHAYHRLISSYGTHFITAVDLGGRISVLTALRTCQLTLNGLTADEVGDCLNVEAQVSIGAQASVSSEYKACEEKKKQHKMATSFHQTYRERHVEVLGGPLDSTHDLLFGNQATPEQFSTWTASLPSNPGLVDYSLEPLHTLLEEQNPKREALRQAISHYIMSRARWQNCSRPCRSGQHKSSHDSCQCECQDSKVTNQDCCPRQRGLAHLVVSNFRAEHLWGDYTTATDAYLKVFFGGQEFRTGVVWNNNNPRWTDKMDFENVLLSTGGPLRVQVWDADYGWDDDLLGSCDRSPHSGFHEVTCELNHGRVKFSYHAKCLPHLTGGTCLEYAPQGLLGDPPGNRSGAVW
Experimental: The ability of the compounds to inhibit the lysis of nucleated (Jurkat T lymphoma) cells in the presence of 0.1% BSA, as measured by release of ^51Cr was measured. Jurkat target cells were labelled by incubation in medium with 100 µCi ^51Cr for one hour. The cells were then washed three times to remove unincorporated isotope and re-suspended at 1 x 10^5 cells per mL in RPMI buffer supplemented with 0.1% BSA. Each test compound was pre-incubated to concentrations of 20, 10, 5, 2.5 and 1.25 µM with recombinant perforin for 30 min with DMSO as a negative control. ^51Cr labelled Jurkat cells were then added and cells were incubated at 37 °C for 4 h. The supernatant was collected and assessed for its radioactive content on a gamma counter (Wallac Wizard 1470 automatic gamma counter). Each data point was performed in triplicate and an IC50 was calculated from the range of concentrations described to above.

[3] = tested on: perforin delivered by KHYG-1 NK cells; experiment: KHYG-1 cytotoxicity assay: lysis of K562 target cells by KHYG-1 NK cells (51Cr release); type: cell-based, human; conditions: for Activity against perforin delivered by whole KHYG-1 NK cells (in words): whole human NK cells, K562 targets
Experimental: (§1) The compounds were then evaluated for their ability to block the effect of perforin delivered by whole KHYG-1 NK cells (Table 2). Employing whole NK cells is a more rigorous model of conditions in vivo than the use of isolated recombinant protein since effector cell identification of the labelled target cell and formation of an immune synapse are required for perforin release. […] After co-incubation of inhibitor with KHYG-1 NK cells in medium for 30 min at room temperature, ^51Cr-labelled K562 leukaemia target cells were added and cell lysis evaluated after 4 h incubation at 37 °C by measuring ^51Cr release. […] Viable and dead cells were counted and percent viability calculated based on total cell count (for further details see Supplementary data). […] For the purposes of this work, compounds are classified as toxic if NK cell viability falls below 70%. This is due to the importance of CTLs and NK cells in the overall immunological response which means that it is essential that any pharmacological intervention allows rapid recovery of these cytotoxic effector cells for normal immunological function.
KHYG-1 cells were washed and re-suspended in RPMI + 0.1% BSA at 4 × 10^5 cells/mL, and an amount of 50 μL of KHYG-1 cells was dispensed to each well of a 96-well V-bottom plate. RPMI (50 μL) + 0.1% BSA or 10% (final concentration) of serum was added to each well. Then test compounds were added to KHYG-1 cells at various concentrations up to 20 μM and incubated at room temperature for […]. 1 × 10^6 K562 target cells were labelled with 75 μCi ^51Cr in 200 μL of RPMI for 90 min at 37 °C. Cells were washed as described above and re-suspended in 5 mL of RPMI + 0.1% BSA. An amount of 50 μL of ^51Cr labelled K562 leukaemia target cells was added to each well of the KHYG-1 plate (effector/target 2:1) and incubated at 37 °C for 4 h. ^51Cr release was assayed using a Skatron harvesting press and radioactivity estimated on a Wallac Wizard 1470 automatic γ counter (Turku, Finland). The percentage of specific cytotoxicity was calculated using the following formula:
% specific lysis = […]
(maximum release - spontaneous release)
and expressed as the mean of triplicate assays ± standard error of the mean.

[4] = Plasma stability, mouse plasma; type: in vitro ADME; conditions: % parent remaining at 24 h, 37 °C
Experimental: (§2) Preliminary stability studies were carried out by incubation in human or mouse plasma at 37 °C with the percentage parent remaining measured at 24 h (Table 2). […] In mouse plasma the ratio of open to closed is 50:50%, while in human plasma this shifts to 90:10 due to the strong affinity of human serum albumin for the ring-opened form.[20] It is likely that the same phenomenon is operating in the present case and while not necessarily an issue for mouse studies, will need to be addressed in future work.
(§3) Incubation method - Mouse (CD-1, male) and human (pooled) plasma pH was adjusted to 7.4 with either 1M phosphoric acid or sodium hydroxide. Plasma was spiked with 100 uM of test compounds and divided into two parts; one part was immediately transferred to -80 °C (control), and the second part was incubated at 37 °C at 24 h.
(§4) At the end of the study duration, samples were transferred to -80 °C until ready to analyse by HPLC-DAD. On the day of analysis, control and incubated samples were thawed on wet ice and mixed.
(§5) Sample treatment for HPLC - 20 uL of samples were mixed with 80 uL (1:4 v/v) ice cold acetonitrile to precipitate the plasma proteins, centrifuged at 13,000 rpm for 5 min to obtain the clear supernatant. The supernatant was diluted with 0.01% formic acid– water (1:2 v/v) and 50 uL was injected onto the HPLC system (Agilent).
(§6) Calculation: The % loss was calculated based on peak area using the following formula: (peak area time “0”- peak area time “24h”)/peak area time “0” multiplied by 100. % Remaining = 100 - % loss.

[5] = Plasma stability, human plasma; type: in vitro ADME; conditions: % parent remaining at 24 h, 37 °C
Experimental: as §2, §3, §4, §5, §6

[6] = Toxicity to KHYG-1 NK cells (Trypan blue exclusion); conditions: human
Experimental: as §1
The toxicity assay was carried out in exactly the same manner as the killing assay above, but instead of adding the labelled K562 target cells, 100 μL of RPMI 0.1% BSA was added. Cells were incubated for 4 h at 37 °C and then washed ×3 in RPMI + 0.1% BSA. Cells were then re-suspended in 200 μL of complete medium and incubated for 18−24 h at 37 °C. Trypan blue was added to each well. Viable (clear) cells and total (clear + blue) cells were counted, and the percentage of viable cells was calculated compared to DMSO treated cell control (% viability).

Compound	melting point [°C]	Inhibition of perforin lytic activity in Jurkat assay (in words) [2]	also measured
CS(=O)(=O)c1ccc(-c2ccc(-c3ccc4c(c3)COC4=O)s2)cc1 [Compound 60]	278 to 280	–	–
O=C(NCCO)c1ccc(-c2ccc(-c3ccc4c(c3)COC4=O)s2)cc1O [Compound 51]	–	–	solubility [1]: 15.7 µg/mL (≈ 39.7 µM)
CN1Cc2cc(-c3ccc(-c4ccc(C(N)=O)cc4)s3)ccc2C1=O [Compound 23b]	287 to 290	loss of activity	–
Cc1ccc(-c2ccc(-c3ccc4c(c3)COC4=O)s2)cc1 [Compound 9]	184 to 186	–	–
CN(C)CCNC(=O)c1ccc(-c2ccc(-c3ccc4c(c3)COC4=O)s2)cc1O [Compound 50]	242 to 245	poor activity or were inactive	–
COc1ccc(-c2ccc(-c3ccc4c(c3)COC4=O)s2)cc1 [Compound 15]	224 to 227	–	–
CC(C)(C)NS(=O)(=O)c1ccc(-c2ccc(-c3ccc4c(c3)COC4=O)s2)cc1 [Compound 62]	255 to 257	–	–
N#Cc1cccc(-c2ccc(-c3ccc4c(c3)COC4=O)s2)c1 [Compound 20]	250 to 251	activity is lost altogether	–
O=C1OCc2cc(-c3ccc(-c4ccccc4)s3)ccc21 [Compound 6]	231 to 233	–	–
CC(O)CNC(=O)c1ccc(-c2ccc(-c3ccc4c(c3)COC4=O)s2)cc1O (centres unmarked) [Compound 52]	241 to 244	–	–
Nc1cc(-c2ccc(-c3ccc4c(c3)COC4=O)s2)ccc1C(=O)NCCN1CCOCC1 [Compound 56]	209 to 211	poor activity or were inactive	–
NC(=O)c1ccc(-c2ccc(-c3ccc4c(c3)COC4=O)s2)cc1N [Compound 55]	–	–	solubility [1]: 9.4 µg/mL (≈ 26.8 µM)
CS(=O)(=O)Nc1ccc(-c2ccc(-c3ccc4c(c3)COC4=O)s2)cc1 [Compound 63]	–	–	KHYG-1 inhibition (% at 20 μM) ([3]; compound 20 μM, perforin-induced lysis of K562 target cells co-incubated with KHYG-1 human NK cells, vs untreated control): No activity; Activity against perforin delivered by whole KHYG-1 NK cells (in words) [3]: poor or no activity; Plasma stability (% at 24 h) Mouse [4]: 80%; Plasma stability (% at 24 h) Human [5]: 70%
O=C(NCCN1CCOCC1)c1ccc(-c2ccc(-c3ccc4c(c3)COC4=O)s2)cc1O [Compound 49]	–	poor activity or were inactive	–
COc1ccccc1-c1ccc(-c2ccc3c(c2)COC3=O)s1 [Compound 13]	190 to 192	no detectable inhibition	–
CN(C)CCCNC(=O)c1ccc(-c2ccc(-c3ccc4c(c3)COC4=O)s2)cc1 [Compound 32]	185 to 188	poor activity or were inactive	–
O=C1OCc2cc(-c3ccc(-c4ccc(CO)cc4)s3)ccc21 [Compound 59]	–	–	inhibition at 20 µM ([3]; Homo sapiens, KHYG-1 NK, read-out: KHYG-1 inhibition (% at 20 μM), compound 20 μM, perforin-induced lysis of K562 target cells co-incubated with KHYG-1 human NK cells, vs untreated control): 13%; Activity against perforin delivered by whole KHYG-1 NK cells (in words) [3]: poor or no activity; viability at 24 h, 20 µM [6]: 79%; Plasma stability (% at 24 h) Mouse [4]: 87%; Plasma stability (% at 24 h) Human [5]: 73%
O=C1OCc2cc(-c3ccc(-c4ccc(O)cc4)s3)ccc21 [Compound 19]	279 to 282	loses all activity	–
NC(=O)c1ccc(-c2ccc(-c3ccc4c(c3)CNC4=O)s2)cc1 [Compound 23a]	–	loss of activity	–

Compound	melting point [°C]	Inhibition of perforin lytic activity in Jurkat assay (in words) [2]	also measured
O=C1OCc2cc(-c3ccc(-c4ccc(Cl)cc4)s3)ccc21 [Compound 12]	231 to 234	–	–
NS(=O)(=O)c1cccc(-c2ccc(-c3ccc4c(c3)COC4=O)s2)c1 [Compound 61]	273 to 276	–	–
NC(=O)c1cccc(-c2ccc(-c3ccc4c(c3)COC4=O)s2)c1 [Compound 22]	259 to 263	–	–
CNC(=O)c1ccc(-c2ccc(-c3ccc4c(c3)COC4=O)s2)cc1 [Compound 29]	299 to 302	loss of efficacy	–
CN(C)CCNC(=O)c1ccc(-c2ccc(-c3ccc4c(c3)COC4=O)s2)cc1N [Compound 57]	185 to 188	poor activity or were inactive	–
COc1cccc(-c2ccc(-c3ccc4c(c3)COC4=O)s2)c1 [Compound 14]	165 to 167	no detectable inhibition	–
O=C1OCc2cc(-c3ccc(-c4ccncc4)s3)ccc21 [Compound 70]	260 to 261	–	–
O=C1OCc2cc(-c3ccc(-c4ccc5c(c4)COC5=O)s3)ccc21 [Compound 71]	–	only moderately potent	Solubility (in words) [1]: extremely insoluble
Cc1cccc(-c2ccc(-c3ccc4c(c3)COC4=O)s2)c1 [Compound 8]	192 to 194	–	–
CN1CCN(C(=O)c2ccc(-c3ccc(-c4ccc5c(c4)COC5=O)s3)cc2)CC1 [Compound 31]	–	abolishes activity completely	–
Cc1ccccc1-c1ccc(-c2ccc3c(c2)COC3=O)s1 [Compound 7]	109 to 111	–	–
O=C1OCc2cc(-c3ccc(-c4cccc(O)c4)s3)ccc21 [Compound 18]	276 to 279	–	–
CSc1ccc(-c2ccc(-c3ccc4c(c3)COC4=O)s2)cc1 [Compound 58]	239 to 241	–	–
O=C1OCc2cc(-c3ccc(-c4cccc(Cl)c4)s3)ccc21 [Compound 11]	207 to 209	–	–
NC(=O)CNC(=O)c1ccc(-c2ccc(-c3ccc4c(c3)COC4=O)s2)cc1O [Compound 53]	–	–	solubility [1]: 4.7 µg/mL (≈ 11.5 µM)
CN(C)C(=O)c1ccc(-c2ccc(-c3ccc4c(c3)COC4=O)s2)cc1 [Compound 30]	290 to 292	abolishes activity completely	–
CCOC(=O)c1ccc(-c2ccc(-c3ccc4c(c3)COC4=O)s2)cc1O [Compound 40]	208 to 210	–	–
O=C1OCc2cc(-c3ccc(-c4ccccc4Cl)s3)ccc21 [Compound 10]	131 to 133	–	–
